Where “and” joins values, the source holds several entries; their conditions need not be identical. Equal entries are not always repeated.
Columns and labels:
[1] = target: T1, Human immunodeficiency virus type 1 reverse transcriptase (Human immunodeficiency virus 1, UniProt Q72547); test: Inhibition of wildtype recombinant HIV-1 Reverse transcriptase incubated for 40 mins by spectrofluorometric analysis
[2] = tested on: Human immunodeficiency virus 1; test: Antiviral activity against HIV-1 harboring Y181C mutant infected in human MT4 cells assessed as protection against virus-induced cytopathic effect incubated for 5 days by MTT assay; format: functional, organism-based; details: Human immunodeficiency virus 1, MT4, 120 h
[3] = Selectivity index, ratio of CC50 for cytotoxicity against human MT4 cells assessed as reduction in cell viability to EC50 for antiviral activity against wild type HIV-1 IIIB infected in human MT4 cells assessed as protection against virus-induced cytopathic effect; format: toxicity, cell-based; details: MT4 cells, read-out: Ratio CC50/EC50
[4] = tested on: Human immunodeficiency virus 1; test: Antiviral activity against HIV-1 harboring L100I mutant infected in human MT4 cells assessed as protection against virus-induced cytopathic effect incubated for 5 days by MTT assay; format: functional, organism-based; details: Human immunodeficiency virus 1, MT4, 120 h
[5] = tested on: Human immunodeficiency virus 1; test: Antiviral activity against HIV-1 harboring F227L/V106A double mutant infected in human MT4 cells assessed as protection against virus-induced cytopathic effect incubated for 5 days by MTT assay; format: functional, organism-based; details: Human immunodeficiency virus 1, MT4, 120 h
[6] = Cytotoxicity against human MT4 cells assessed as reduction in cell viability incubated for 5 days by MTT assay; format: toxicity, cell-based; details: MT4 cells, time 5 day
[7] = tested on: Human immunodeficiency virus 1; test: Antiviral activity against HIV-1 harboring E138K mutant infected in human MT4 cells assessed as protection against virus-induced cytopathic effect incubated for 5 days by MTT assay; format: functional, organism-based; details: Human immunodeficiency virus 1, MT4, 120 h
[8] = tested on: Human immunodeficiency virus 1; test: Antiviral activity against HIV-1 harboring K103N mutant infected in human MT4 cells assessed as protection against virus-induced cytopathic effect incubated for 5 days by MTT assay; format: functional, organism-based; details: Human immunodeficiency virus 1, MT4, 120 h
[9] = tested on: Human immunodeficiency virus 1; test: Antiviral activity against HIV-1 harboring RES056 mutant infected in human MT4 cells assessed as protection against virus-induced cytopathic effect incubated for 5 days by MTT assay; format: functional, organism-based; details: Human immunodeficiency virus 1, MT4, 120 h
[10] = target: T1, Human immunodeficiency virus type 1 reverse transcriptase; test: Inhibition of HIV-1 reverse transcriptase
[11] = tested on: Human immunodeficiency virus 1; test: Antiviral activity against HIV-1 harboring Y188L mutant infected in human MT4 cells assessed as protection against virus-induced cytopathic effect incubated for 5 days by MTT assay; format: functional, organism-based; details: Human immunodeficiency virus 1, MT4, 120 h

Structure (SMILES)	IC50 [1]	EC50 [2] [µM]	selectivity ratio [3]	EC50 [4] [µM]	EC50 [5] [µM]	CC50 at 120 h [6] [µM]	EC50 [7] [µM]	EC50 [8] [µM]	EC50 [9] [µM]	EC50 [10] [µM]	EC50 [11] [µM]
CNS(=O)(=O)c1ccc(CN2CCC(Nc3ncc(CO)c(Oc4c(C)cc(-c5ccc(C#N)cc5)cc4C)n3)CC2)cc1	0.497 µM	0.019	1190	0.008	0.052	6.68	0.03	0.01	0.066	0.006	0.031
Cc1cc(-c2ccc(C#N)cc2)cc(C)c1Oc1nc(NC2CCN(Cc3cccc([N+](=O)[O-])c3)CC2)ncc1CO	0.184 µM		819		0.291	7.36			0.646	0.009	0.167
Cc1cc(-c2ccc(C#N)cc2)cc(C)c1Oc1nc(NC2CCN(Cc3ccc(C(=O)NCCCO)cc3)CC2)ncc1CO	0.463 µM	0.029	2630	0.01	0.055	17.3	0.026	0.007	0.272	0.007	0.114
CNC(=O)c1cccc(CN2CCC(Nc3ncc(CO)c(Oc4c(C)cc(-c5ccc(C#N)cc5)cc4C)n3)CC2)c1	0.305 µM		506		5	20.2			5.63	0.04	0.813
Cc1cc(-c2ccc(C#N)cc2)cc(C)c1Oc1nc(NC2CCN(Cc3ccc(S(C)(=O)=O)cc3)CC2)ncc1CO	0.27 µM	0.019	1190	0.008	0.052	9.17	0.036	0.018	0.163	0.008	0.058
Cc1cc(-c2ccc(C#N)cc2)cc(C)c1Oc1nc(NC2CCN(Cc3ccccc3C#N)CC2)ncc1CO	0.226 µM		628		0.239	5.14			0.409	0.008	0.2
Cc1cc(-c2ccncc2)cc(C)c1Oc1nc(NC2CCN(Cc3ccc(C(=O)NCCCO)cc3)CC2)ncc1CO	0.355 µM										
Cc1cc(-c2ccc(C#N)cc2)cc(C)c1Oc1nc(NC2CCN(Cc3ccc(F)cc3)CC2)ncc1CO			629		0.558	5.68			0.935	0.009	0.283
COC(=O)/C=C/c1ccc(CN2CCC(Nc3ncc(CO)c(Oc4c(C)cc(-c5ccc(C#N)cc5)cc4C)n3)CC2)cc1	0.437 µM		13400		0.329	88.3			0.357	0.007	0.213
COCCNS(=O)(=O)c1ccc(CN2CCC(Nc3ncc(CO)c(Oc4c(C)cc(-c5ccc(C#N)cc5)cc4C)n3)CC2)cc1	0.575 µM	0.034	1030	0.006	0.034	6.71	0.04	0.007	0.045	0.006	0.047
COC(=O)c1ccc(CN2CCC(Nc3ncc(CO)c(Oc4c(C)cc(-c5ccc(C#N)cc5)cc4C)n3)CC2)cc1	0.377 µM		1120		0.175	13.9			0.469	0.012	0.175
Cc1cc(-c2ccc(C#N)cc2)cc(C)c1Oc1nc(NC2CCN(Cc3ccc([N+](=O)[O-])cc3)CC2)ncc1CO	0.202 µM		381		0.54	3.23			0.306	0.008	0.189
Cc1cc(-c2ccc(C#N)cc2)cc(C)c1Oc1nc(NC2CCN(Cc3ccc(C(N)=O)cc3)CC2)ncc1CO	0.265 µM		3200		0.26	21.8			0.304	0.007	0.156
Cc1cc(-c2ccc(C#N)cc2)cc(C)c1Oc1nc(NC2CCN(Cc3ccc(S(=O)(=O)NCCCO)cc3)CC2)ncc1CO	0.543 µM		247		0.114	6.32			0.268	0.026	0.24
Cc1cc(-c2ccc(C#N)cc2)cc(C)c1Oc1nc(NC2CCN(Cc3ccc(S(=O)(=O)NCCO)cc3)CC2)ncc1CO	0.413 µM		1630		0.069	15.5			0.327	0.01	0.228
Cc1ccc(CN2CCC(Nc3ncc(CO)c(Oc4c(C)cc(-c5ccc(C#N)cc5)cc4C)n3)CC2)cc1	0.626 µM		285		0.81	3.66			1.12	0.013	0.237
Cc1cc(-c2ccc(C#N)cc2)cc(C)c1Oc1nc(NC2CCN(Cc3ccc(C(F)(F)F)cc3)CC2)ncc1CO			127		1.59	5.05			2.6	0.04	0.701
Cc1cc(-c2ccc(C#N)cc2)cc(C)c1Oc1nc(NC2CCN(Cc3cccc(C(N)=O)c3)CC2)ncc1CO	0.201 µM		2230		0.271	18.4			1.21	0.008	0.255
Cc1cc(-c2ccc(C#N)cc2)cc(C)c1Oc1nc(NC2CCN(Cc3ccc(C(=O)NCCO)cc3)CC2)ncc1CO			1140			16.3				0.014	
CNC(=O)c1ccc(CN2CCC(Nc3ncc(CO)c(Oc4c(C)cc(-c5ccc(C#N)cc5)cc4C)n3)CC2)cc1	0.438 µM		1250		1.39	28.1			4.69	0.023	0.551
Cc1cc(-c2ccc(C#N)cc2)cc(C)c1Oc1nc(NC2CCN(Cc3ccc(OC(F)(F)F)cc3)CC2)ncc1CO	0.375 µM and 0.249 µM		140		1.08	5.96			1.26	0.043	0.479
O=C1Nc2ccc(Cl)cc2[C@@](C#CC2CC2)(C(F)(F)F)O1 [EFAVIRENZ]		0.008		0.055		> 6.35	0.01		0.579		
Cc1ccnc2c1NC(=O)c1cccnc1N2C1CC1 [NEVIRAPINE]		6.92		1360	6.46	> 15.3		2.18	> 15.3		9.31
Cc1cc(/C=C/C#N)cc(C)c1Nc1ccnc(Nc2ccc(C#N)cc2)n1 [RILPIVIRINE]				0.002						0.001	
Cc1cn([C@H]2C[C@H](N=[N+]=[N-])[C@@H](CO)O2)c(=O)[nH]c1=O [ZIDOVUDINE]		0.022	> 281		0.017	> 7.49	0.032	0.029	0.034	0.027	0.015
